Measurements published in the kinase profiling compilation of Christmann-Franck et al. (2016).

Legend:
Assay in all cases: KINOMEscan competition binding
Conditions in all cases: compound 10.0 µM
EPHA2 (human) = EPHA2 (human) (UniProt P29317)
MAP3K9 (human) = MAP3K9 (human) (UniProt P80192)
CHEK2 (human) = CHEK2 (human) (UniProt O96017)
PAK6 (human) = PAK6 (human) (UniProt Q9NQU5)
BRSK1 (human) = BRSK1 (human) (UniProt Q8TDC3)
MST1R (human) = MST1R (human) (UniProt Q04912)
PTK2 (human) = PTK2 (human) (UniProt Q05397)
PRKD2 (human) = PRKD2 (human) (UniProt Q9BZL6)
FLT4 (human) = FLT4 (human) (UniProt P35916)
DCLK1 (human) = DCLK1 (human) (UniProt O15075)
AKT1 (human) = AKT1 (human) (UniProt P31749)
[1] = system: ABL1 (human), P00519 [M351T]
PDPK1 (human) = PDPK1 (human) (UniProt O15530)
MAPK11 (human) = MAPK11 (human) (UniProt Q15759)
STK32C (human) = STK32C (human) (UniProt Q86UX6)
RPS6KA4 KD1 (human) = RPS6KA4 KD1 (human) (UniProt O75676)
ACVR1B (human) = ACVR1B (human) (UniProt P36896)
PIK3CD (human) = PIK3CD (human) (UniProt O00329)
PRKG2 (human) = PRKG2 (human) (UniProt Q13237)
SRMS (human) = SRMS (human) (UniProt Q9H3Y6)
PLK3 (human) = PLK3 (human) (UniProt Q9H4B4)
MAPK14 (human) = MAPK14 (human) (UniProt Q16539)
BLK (human) = BLK (human) (UniProt P51451)
PTK6 (human) = PTK6 (human) (UniProt Q13882)
STK35 (human) = STK35 (human) (UniProt Q8TDR2)
HCK (human) = HCK (human) (UniProt P08631)
TESK1 (human) = TESK1 (human) (UniProt Q15569)
IRAK3 (human) = IRAK3 (human) (UniProt Q9Y616)
CDC2L2 (human) = CDC2L2 (human) (UniProt Q9UQ88)
NTRK2 (human) = NTRK2 (human) (UniProt Q16620)
FGR (human) = FGR (human) (UniProt P09769)
INSRR (human) = INSRR (human) (UniProt P14616)
STK38L (human) = STK38L (human) (UniProt Q9Y2H1)
FYN (human) = FYN (human) (UniProt P06241)
EPHA8 (human) = EPHA8 (human) (UniProt P29322)
ROS1 (human) = ROS1 (human) (UniProt P08922)
STK3 (human) = STK3 (human) (UniProt Q13188)
BMPR2 (human) = BMPR2 (human) (UniProt Q13873)
MYLK2 (human) = MYLK2 (human) (UniProt Q9H1R3)
EPHB3 (human) = EPHB3 (human) (UniProt P54753)
[2] = system: RET (human), P07949 [V804M]
MLTK (human) = MLTK (human) (UniProt Q9NYL2)
STK25 (human) = STK25 (human) (UniProt O00506)
STK25 (human), sequence (O00506 whole entry, looked up): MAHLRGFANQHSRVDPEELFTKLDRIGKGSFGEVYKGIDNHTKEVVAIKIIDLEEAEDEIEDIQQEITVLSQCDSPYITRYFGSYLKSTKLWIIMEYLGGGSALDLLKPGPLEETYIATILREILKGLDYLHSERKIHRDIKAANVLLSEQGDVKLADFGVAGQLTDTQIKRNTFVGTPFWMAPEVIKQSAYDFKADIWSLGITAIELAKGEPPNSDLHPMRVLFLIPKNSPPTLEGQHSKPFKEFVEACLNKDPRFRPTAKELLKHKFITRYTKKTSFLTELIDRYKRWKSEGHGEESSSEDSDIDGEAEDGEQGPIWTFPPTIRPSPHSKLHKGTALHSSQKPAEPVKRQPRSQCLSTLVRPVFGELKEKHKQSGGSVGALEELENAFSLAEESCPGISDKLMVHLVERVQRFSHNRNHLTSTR

ACVR1B (human), sequence (P36896 whole entry, looked up): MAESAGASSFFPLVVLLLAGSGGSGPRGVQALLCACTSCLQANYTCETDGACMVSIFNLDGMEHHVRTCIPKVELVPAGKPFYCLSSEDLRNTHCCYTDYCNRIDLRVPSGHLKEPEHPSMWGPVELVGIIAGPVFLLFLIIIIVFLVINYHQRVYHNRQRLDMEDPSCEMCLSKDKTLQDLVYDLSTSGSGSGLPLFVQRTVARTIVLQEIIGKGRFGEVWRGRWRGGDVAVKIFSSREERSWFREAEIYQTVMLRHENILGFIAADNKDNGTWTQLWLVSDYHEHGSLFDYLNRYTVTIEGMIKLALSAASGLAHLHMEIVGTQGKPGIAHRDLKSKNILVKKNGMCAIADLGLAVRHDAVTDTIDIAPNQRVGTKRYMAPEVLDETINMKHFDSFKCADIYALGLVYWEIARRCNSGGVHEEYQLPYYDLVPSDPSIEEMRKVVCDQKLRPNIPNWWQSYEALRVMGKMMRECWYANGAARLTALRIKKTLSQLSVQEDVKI
EPHA2 (human), sequence (P29317 whole entry, looked up): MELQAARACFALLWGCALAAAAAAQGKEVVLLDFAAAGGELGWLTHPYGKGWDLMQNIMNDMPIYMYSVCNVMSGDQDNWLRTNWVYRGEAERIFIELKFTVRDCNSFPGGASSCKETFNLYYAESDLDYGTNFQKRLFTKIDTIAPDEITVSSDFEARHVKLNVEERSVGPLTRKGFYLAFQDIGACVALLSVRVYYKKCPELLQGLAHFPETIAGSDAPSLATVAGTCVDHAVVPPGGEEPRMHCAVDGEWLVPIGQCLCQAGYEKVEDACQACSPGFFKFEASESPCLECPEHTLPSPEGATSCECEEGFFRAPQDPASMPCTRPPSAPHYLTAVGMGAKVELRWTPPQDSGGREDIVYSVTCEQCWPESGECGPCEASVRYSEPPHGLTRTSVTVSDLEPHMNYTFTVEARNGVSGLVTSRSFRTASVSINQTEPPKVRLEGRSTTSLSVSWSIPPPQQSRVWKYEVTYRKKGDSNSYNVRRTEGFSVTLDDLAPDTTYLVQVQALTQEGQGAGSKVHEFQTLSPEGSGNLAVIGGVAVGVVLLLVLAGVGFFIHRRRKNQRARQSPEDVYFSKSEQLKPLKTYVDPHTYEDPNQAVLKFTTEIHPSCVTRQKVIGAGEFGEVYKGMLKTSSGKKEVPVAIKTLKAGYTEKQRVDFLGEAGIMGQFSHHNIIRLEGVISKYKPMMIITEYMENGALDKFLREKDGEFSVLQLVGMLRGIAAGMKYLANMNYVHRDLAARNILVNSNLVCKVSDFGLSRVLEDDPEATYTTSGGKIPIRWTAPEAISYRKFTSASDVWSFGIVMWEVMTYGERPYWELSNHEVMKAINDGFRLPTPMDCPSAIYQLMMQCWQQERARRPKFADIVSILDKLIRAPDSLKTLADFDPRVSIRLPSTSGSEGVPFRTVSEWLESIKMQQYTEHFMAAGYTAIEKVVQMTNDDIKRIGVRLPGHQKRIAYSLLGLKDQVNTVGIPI
NTRK2 (human), sequence (Q16620 whole entry, looked up): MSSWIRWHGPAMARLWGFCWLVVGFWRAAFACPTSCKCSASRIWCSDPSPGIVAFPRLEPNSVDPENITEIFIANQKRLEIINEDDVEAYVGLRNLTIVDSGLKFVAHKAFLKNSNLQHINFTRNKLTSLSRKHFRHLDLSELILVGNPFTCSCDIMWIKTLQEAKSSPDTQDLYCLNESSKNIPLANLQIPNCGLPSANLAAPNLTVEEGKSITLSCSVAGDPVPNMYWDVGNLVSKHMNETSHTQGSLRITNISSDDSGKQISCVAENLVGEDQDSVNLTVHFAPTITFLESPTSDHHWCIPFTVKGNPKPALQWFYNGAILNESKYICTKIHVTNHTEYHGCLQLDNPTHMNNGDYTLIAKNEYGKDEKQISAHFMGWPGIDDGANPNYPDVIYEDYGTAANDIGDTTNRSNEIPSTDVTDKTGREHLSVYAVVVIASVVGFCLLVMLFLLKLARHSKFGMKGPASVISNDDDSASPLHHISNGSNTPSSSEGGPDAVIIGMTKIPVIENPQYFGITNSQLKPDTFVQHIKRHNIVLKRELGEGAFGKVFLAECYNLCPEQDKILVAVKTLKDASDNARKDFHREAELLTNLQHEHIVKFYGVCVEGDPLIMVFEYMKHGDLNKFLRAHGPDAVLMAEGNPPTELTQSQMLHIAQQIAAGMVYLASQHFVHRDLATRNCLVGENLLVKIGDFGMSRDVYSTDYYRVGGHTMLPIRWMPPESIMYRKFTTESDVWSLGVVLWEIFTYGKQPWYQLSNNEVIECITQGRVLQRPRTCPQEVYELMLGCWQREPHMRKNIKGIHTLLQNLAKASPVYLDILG
MLTK (human), sequence (Q9NYL2 whole entry, looked up): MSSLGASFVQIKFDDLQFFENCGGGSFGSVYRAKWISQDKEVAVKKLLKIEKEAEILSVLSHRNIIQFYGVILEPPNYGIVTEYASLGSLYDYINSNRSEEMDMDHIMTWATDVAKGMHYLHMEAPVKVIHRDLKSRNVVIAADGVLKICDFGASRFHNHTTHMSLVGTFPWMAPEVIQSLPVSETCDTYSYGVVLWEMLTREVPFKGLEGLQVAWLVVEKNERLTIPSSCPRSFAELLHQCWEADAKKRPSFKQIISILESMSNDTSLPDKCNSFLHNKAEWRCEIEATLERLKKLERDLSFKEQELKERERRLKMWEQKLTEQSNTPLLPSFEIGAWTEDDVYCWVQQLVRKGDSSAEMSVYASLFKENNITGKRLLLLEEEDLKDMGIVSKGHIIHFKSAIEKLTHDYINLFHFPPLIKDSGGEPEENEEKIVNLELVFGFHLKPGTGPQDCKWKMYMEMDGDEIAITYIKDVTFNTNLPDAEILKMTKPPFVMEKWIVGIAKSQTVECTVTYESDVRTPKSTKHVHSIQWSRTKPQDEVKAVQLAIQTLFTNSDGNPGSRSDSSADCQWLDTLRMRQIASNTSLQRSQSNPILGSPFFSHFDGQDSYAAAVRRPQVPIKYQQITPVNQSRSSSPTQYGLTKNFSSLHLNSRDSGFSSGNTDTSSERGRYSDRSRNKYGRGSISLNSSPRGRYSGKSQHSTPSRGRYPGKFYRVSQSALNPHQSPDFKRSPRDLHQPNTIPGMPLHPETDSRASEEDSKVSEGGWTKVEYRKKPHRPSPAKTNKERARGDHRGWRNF
SRMS (human), sequence (Q9H3Y6 whole entry, looked up): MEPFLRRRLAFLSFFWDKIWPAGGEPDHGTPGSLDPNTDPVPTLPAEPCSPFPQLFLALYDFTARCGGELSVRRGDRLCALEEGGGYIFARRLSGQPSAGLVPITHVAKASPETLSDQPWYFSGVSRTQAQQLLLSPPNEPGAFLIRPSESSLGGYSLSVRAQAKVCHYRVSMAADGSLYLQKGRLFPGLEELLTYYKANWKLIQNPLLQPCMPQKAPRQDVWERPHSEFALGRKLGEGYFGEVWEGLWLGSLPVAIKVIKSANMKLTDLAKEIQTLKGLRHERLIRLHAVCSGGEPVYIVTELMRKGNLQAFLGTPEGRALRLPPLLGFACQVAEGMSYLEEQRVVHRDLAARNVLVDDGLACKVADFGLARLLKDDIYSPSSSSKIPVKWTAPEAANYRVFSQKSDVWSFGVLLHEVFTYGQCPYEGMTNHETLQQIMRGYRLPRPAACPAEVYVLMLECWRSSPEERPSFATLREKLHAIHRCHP
PDPK1 (human), sequence (O15530 whole entry, looked up): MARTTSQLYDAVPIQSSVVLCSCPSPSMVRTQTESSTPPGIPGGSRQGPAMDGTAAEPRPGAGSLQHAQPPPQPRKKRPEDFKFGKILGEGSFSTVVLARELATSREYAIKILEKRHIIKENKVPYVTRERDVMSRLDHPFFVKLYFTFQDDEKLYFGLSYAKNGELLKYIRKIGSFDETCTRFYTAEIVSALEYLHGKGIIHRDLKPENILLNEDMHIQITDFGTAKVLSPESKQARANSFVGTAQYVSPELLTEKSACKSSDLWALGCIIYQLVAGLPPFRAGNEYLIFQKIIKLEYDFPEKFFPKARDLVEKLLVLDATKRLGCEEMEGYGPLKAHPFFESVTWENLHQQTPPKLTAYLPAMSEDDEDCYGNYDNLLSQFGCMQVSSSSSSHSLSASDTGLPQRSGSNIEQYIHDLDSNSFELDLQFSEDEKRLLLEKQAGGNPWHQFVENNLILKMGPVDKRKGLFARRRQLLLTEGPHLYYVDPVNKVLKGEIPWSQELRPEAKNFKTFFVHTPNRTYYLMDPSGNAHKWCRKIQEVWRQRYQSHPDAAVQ
PTK6 (human), sequence (Q13882 whole entry, looked up): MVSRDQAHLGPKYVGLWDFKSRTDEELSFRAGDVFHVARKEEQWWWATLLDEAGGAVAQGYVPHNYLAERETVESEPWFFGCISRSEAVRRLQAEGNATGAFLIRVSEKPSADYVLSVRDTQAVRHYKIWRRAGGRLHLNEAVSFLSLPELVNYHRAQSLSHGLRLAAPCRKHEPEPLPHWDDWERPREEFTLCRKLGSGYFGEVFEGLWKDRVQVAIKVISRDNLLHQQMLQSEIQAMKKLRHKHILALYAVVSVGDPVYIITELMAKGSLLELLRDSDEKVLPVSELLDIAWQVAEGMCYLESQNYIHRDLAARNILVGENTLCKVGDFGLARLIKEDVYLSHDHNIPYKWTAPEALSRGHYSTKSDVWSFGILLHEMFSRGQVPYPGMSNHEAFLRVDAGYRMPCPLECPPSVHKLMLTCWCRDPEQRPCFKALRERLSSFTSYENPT

SMILES: COc1cc(N2CCN(C)CC2)ccc1Nc1ncc2c(n1)N(C)c1ccccc1N(C)C2=O
- kinase still bound, per cent of control (EPHA2 (human)): 100%
- kinase still bound, per cent of control (MAP3K9 (human)): 100%
- kinase still bound, per cent of control (CHEK2 (human)): 97%
- kinase still bound, per cent of control (PAK6 (human)): 100%
- kinase still bound, per cent of control (BRSK1 (human)): 84%
- kinase still bound, per cent of control (MST1R (human)): 100%
- kinase still bound, per cent of control (PTK2 (human)): 85%
- kinase still bound, per cent of control (PRKD2 (human)): 100%
- kinase still bound, per cent of control (FLT4 (human)): 100%
- kinase still bound, per cent of control (DCLK1 (human)): 56%
- kinase still bound, per cent of control (AKT1 (human)): 91%
- kinase still bound, per cent of control [1]: 78%
- kinase still bound, per cent of control (PDPK1 (human)): 79%
- kinase still bound, per cent of control (MAPK11 (human)): 100%
- kinase still bound, per cent of control (STK32C (human)): 100%
- kinase still bound, per cent of control (RPS6KA4 KD1 (human)): 100%
- kinase still bound, per cent of control (ACVR1B (human)): 100%
- kinase still bound, per cent of control (PIK3CD (human)): 100%
- kinase still bound, per cent of control (PRKG2 (human)): 99%
- kinase still bound, per cent of control (SRMS (human)): 100%
- kinase still bound, per cent of control (PLK3 (human)): 100%
- kinase still bound, per cent of control (MAPK14 (human)): 100%
- kinase still bound, per cent of control (BLK (human)): 93%
- kinase still bound, per cent of control (PTK6 (human)): 32%
- kinase still bound, per cent of control (STK35 (human)): 100%
- kinase still bound, per cent of control (HCK (human)): 96%
- kinase still bound, per cent of control (TESK1 (human)): 76%
- kinase still bound, per cent of control (IRAK3 (human)): 82%
- kinase still bound, per cent of control (CDC2L2 (human)): 100%
- kinase still bound, per cent of control (NTRK2 (human)): 100%
- kinase still bound, per cent of control (FGR (human)): 100%
- kinase still bound, per cent of control (INSRR (human)): 55%
- kinase still bound, per cent of control (STK38L (human)): 100%
- kinase still bound, per cent of control (FYN (human)): 100%
- kinase still bound, per cent of control (EPHA8 (human)): 100%
- kinase still bound, per cent of control (ROS1 (human)): 21%
- kinase still bound, per cent of control (STK3 (human)): 98%
- kinase still bound, per cent of control (BMPR2 (human)): 100%
- kinase still bound, per cent of control (MYLK2 (human)): 100%
- kinase still bound, per cent of control (EPHB3 (human)): 100%
- kinase still bound, per cent of control [2]: 100%
- kinase still bound, per cent of control (MLTK (human)): 100%
- kinase still bound, per cent of control (STK25 (human)): 89%
